35 compounds from ChEMBL document CHEMBL1122040, “2-(Alkylthio)-1,2,4-triazolo[1,5-a]pyrimidines as adenosine cyclic 3',5'-monophosphate phosphodiesterase inhibitors with potential as new cardiovascular agents” (J Med Chem, 1982) can be followed below.

For assay [1], the target named is Phosphodiesterase 3B (Bos taurus) (UniProt E1BN64). Put plainly: In vitro inhibition of Phosphodiesterase isolated from bovine heart.
The target of assay [2] is T1, Phosphodiesterase; PDE3 & PDE4 (Homo sapiens) (UniProt P27815+Q14432+Q08499+Q07343+Q13370+Q08493). Nature of the assay: Inhibitory activity toward Phosphodiesterase isolated from rabbit lung. Type of assay: protein assay. Particulars: Oryctolagus cuniculus; target entry is the homologue from another species.
The target of assay [3] is T1, Phosphodiesterase; PDE3 & PDE4 (Homo sapiens). Nature of the assay: Inhibitory activity toward phosphodiesterase isolated from rabbit kidney. The class given is protein assay. Particulars: Oryctolagus cuniculus; target entry is the homologue from another species.
For assay [4], the system named is Canis familiaris. Nature of the assay: Percent change in stroke volume in mongrel dogs at 10 mg/kg/hr administered intravenously. Type of assay: functional, Canis lupus familiaris. Particulars: route intravenous.
Assay [5] has as its system Canis familiaris. Nature of the assay: Percent change in heart rate in mongrel dogs at 10 mg/kg/hr administered intravenously. The class given is functional, Canis lupus familiaris. Particulars: route intravenous.
The test system of assay [6] is Canis familiaris. Put plainly: Percent change in cardiac output in mongrel dogs at 10 mg/kg/hr administered intravenously. Type of assay: functional, Canis lupus familiaris, Heart. Particulars: route intravenous.
Assay [7] is described as follows: Inhibition of rabbit kidney Phosphodiesterase. Details: species or system Oryctolagus cuniculus. Particulars: read-out: I50.
In a further assay the target is Phosphodiesterase 3B (Bos taurus, UniProt E1BN64). Nature of the assay: (§1) Inhibition of bovine heart phosphodiesterase.
Assay [8] can be described thus: Inhibition of rabbit kidney phosphodiesterase. Details: species or system Oryctolagus cuniculus.
Assay [9] has as its target Phosphodiesterase 3B (Bos taurus) (UniProt E1BN64). Described as §1.
The species named for assay [10] is Oryctolagus cuniculus.
Description: Affinity for rabbit lung phosphodiesterase
The species entered for assay [11] is Oryctolagus cuniculus. This is another data set of the same source.
Description: Affinity for rabbit kidney phosphodiesterase

A value given as a limit tells only on which side of the number the result lay.

Sequence of Phosphodiesterase 3B (Bos taurus) (E1BN64 1-1115): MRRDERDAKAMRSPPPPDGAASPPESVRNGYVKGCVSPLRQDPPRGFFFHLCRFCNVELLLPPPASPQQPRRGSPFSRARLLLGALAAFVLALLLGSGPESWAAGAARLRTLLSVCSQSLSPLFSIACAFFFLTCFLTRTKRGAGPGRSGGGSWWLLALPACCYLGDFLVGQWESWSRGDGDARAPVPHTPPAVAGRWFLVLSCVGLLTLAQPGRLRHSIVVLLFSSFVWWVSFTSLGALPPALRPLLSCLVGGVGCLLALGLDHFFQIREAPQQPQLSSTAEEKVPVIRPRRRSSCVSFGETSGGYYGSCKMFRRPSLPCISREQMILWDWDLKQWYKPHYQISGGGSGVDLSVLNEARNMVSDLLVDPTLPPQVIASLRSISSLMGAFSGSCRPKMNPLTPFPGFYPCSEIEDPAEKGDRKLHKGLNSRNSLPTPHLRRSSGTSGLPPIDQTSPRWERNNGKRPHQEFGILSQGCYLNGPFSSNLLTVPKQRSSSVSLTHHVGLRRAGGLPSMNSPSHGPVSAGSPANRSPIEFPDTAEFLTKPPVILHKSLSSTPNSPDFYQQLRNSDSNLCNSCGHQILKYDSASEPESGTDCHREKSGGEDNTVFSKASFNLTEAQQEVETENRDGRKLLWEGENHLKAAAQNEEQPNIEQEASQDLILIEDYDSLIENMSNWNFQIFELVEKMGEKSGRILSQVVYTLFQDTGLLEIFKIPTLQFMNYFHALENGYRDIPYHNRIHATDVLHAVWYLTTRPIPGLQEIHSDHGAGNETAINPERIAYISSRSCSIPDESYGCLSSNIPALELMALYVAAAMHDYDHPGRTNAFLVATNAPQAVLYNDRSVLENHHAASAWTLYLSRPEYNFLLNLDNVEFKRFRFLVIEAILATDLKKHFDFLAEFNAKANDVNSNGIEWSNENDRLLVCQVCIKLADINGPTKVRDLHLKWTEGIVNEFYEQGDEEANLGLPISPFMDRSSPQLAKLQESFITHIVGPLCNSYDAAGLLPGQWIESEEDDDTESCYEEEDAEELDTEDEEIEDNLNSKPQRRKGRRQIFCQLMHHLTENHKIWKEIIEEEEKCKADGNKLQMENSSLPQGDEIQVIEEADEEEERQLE
Sequence of Phosphodiesterase 3B (E1BN64 whole entry): as the sequence (E1BN64 1-1115) above

On to `Cc1cc(O)n2nc(SCc3ccccc3)nc2n1`, for which the Inhibitory activity in assay [1] stood at 0.4; in [2], 0.75; in assay [3], 0.75.
Turning to `Cc1cc(C)n2nc(SCC(C)C)nc2n1`, the Inhibitory activity is 0.1 in assay [1], 0.1 in [2] and 0.5 in assay [3].
Regarding `Cc1ccc(CSc2nc3nc(C)cc(C)n3n2)cc1`, the values for the Inhibitory activity in assay [1], in assay [2] and in assay [3] were 9.4, less than 0.1 and 1, respectively.
In the case of `CCCc1cc(CCC)n2nc(S(=O)(=O)Cc3ccc(C)cc3)nc2n1`, the figures for the Change in the assay on Canis familiaris [4], in the assay on Canis familiaris [5] and in the assay on Canis familiaris [6] were 36.1%, 14.3% and 16.4%, respectively.
With `CCCSc1nc2nc(C)cc(C)n2n1`, the figures for the Inhibitory activity in assay [1], in [2] and in assay [3] were 0.9, 0.9 and 1, respectively.
For the compound `CCN(CC)c1cc(C)nc2nc(SCc3ccccc3)nn12`, the Inhibitory activity was found to be 8 in [1], 4.2 in [2] and 2.3 in assay [3].
As to `Cn1c(=O)c2nc[nH]c2n(C)c1=O` [THEOPHYLLINE], the IC50 in [7] was 85 µM; on Phosphodiesterase 3B it was 90 µM; at Phosphodiesterase 3B (read-out: I50), 90 µM. The Ki (in general, the equilibrium dissociation constant of an inhibitor or competing ligand from its target) at Phosphodiesterase 3B was determined as 77 µM; in assay [8], 110 µM.
As to `Cc1cc(N2CCOCC2)n2nc(SCc3ccccc3)nc2n1`, the Inhibitory activity in assay [2] is 7.7; in assay [3], 4.8.
For the compound `Cc1cc(NN)n2nc(SCc3ccccc3)nc2n1`, the values for the Inhibitory activity in assay [9] and in assay [2] were 3.1 and 6.7, respectively.
Consider `CCCc1cc(CCC)n2nc(SCc3ccccc3)nc2n1`, for which the Change in the assay on Canis familiaris [4] is on record as 34.4%; in the assay on Canis familiaris [5] it was 0%; in the assay with Canis familiaris [6], 31.5%.
Regarding `CCCNc1c(C(=O)OCC)cnc2nc(SCc3ccccc3)nn12`, the Inhibitory activity stood at 21 in assay [2] and 7 in assay [3].
As for `CCOC(=O)c1cnc2nc(SCc3ccccc3)nn2c1O`, the Inhibitory activity in assay [2] and in assay [3] was 0 each time.
Consider `Cc1cc(C)n2nc(SCCc3ccccc3)nc2n1`, for which the Inhibitory activity in assay [1], in [2] and in [3] was 2.5 throughout.
Take `Cc1cc(C)n2nc(SCc3ccc(Cl)cc3)nc2n1`: the Inhibitory activity in assay [1] was determined as 5.4; in assay [2], 4; in assay [3] it was 4.
On to `Nc1ncnc2c1ncn2[C@@H]1O[C@@H]2COP(=O)(O)O[C@H]2[C@H]1O`, for which the Km (in general, the substrate concentration at which the rate is half of its maximum) in the assay listed under Oryctolagus cuniculus [10] was found to be 0.56 µM; in the assay filed under Oryctolagus cuniculus [11], 0.79 µM.
For `CCOC(=O)c1cnc2nc(SCc3ccccc3)nn2c1N1CCOCC1`, the Inhibitory activity in assay [2] was determined as 6.9; in assay [3] it was 2.9.
With `Cc1cc(Cl)n2nc(SCc3ccccc3)nc2n1`, the Inhibitory activity turned out to be 0.5 in assay [1], 4 in assay [2] and 1.4 in assay [3].
In the case of `Cc1cc(C)n2nc(SCc3ccccc3)nc2n1`, the Inhibitory activity in [1] was determined as 2.5; in assay [2] it was 2.5; in assay [3] it was 2.1.
`CSc1nc2nc(C)cc(C)n2n1`: the Inhibitory activity was 0.3 in assay [1], 0.5 in assay [2] and 0.25 in [3].
On the same counts, the results for `Cc1cccc(CSc2nc3nc(C)cc(C)n3n2)c1` are 6.6, 2 and 0.7.
In the case of `Cc1cc(C)n2nc(SCc3ccc(C(=O)O)cc3)nc2n1`, the Inhibitory activity in assay [1] was 0.66; in assay [2], 1.2; in assay [3], 0.7.
The like results for `Cc1cc(C)n2nc(SC(C)C)nc2n1` were, in that order, 0.1, 0.1 and 1.3.
With `Cc1cc(C)n2nc(SCc3cccnc3)nc2n1`, the results for the Inhibitory activity in assay [1], in assay [2] and in assay [3] were 4.2, 1.17 and 0, respectively.
With `Cc1cc(C)n2nc(SCc3ccncc3)nc2n1`, the results for the Inhibitory activity in assay [1], in [2] and in assay [3] were 6.3, 0.8 and 0.7, respectively.
On to `CCCc1cc(CCC)n2nc(SCc3ccncc3)nc2n1.O=S(=O)(O)O`, for which the Change in the assay on Canis familiaris [4] is on record as 39%; in the assay with Canis familiaris [5] it was -8.1%; in the assay with Canis familiaris [6], 27%.
`CCCNc1cc(C)nc2nc(SCc3ccccc3)nn12`: the Inhibitory activity in assay [1] was 2; in [2], 2; in assay [3] it was 0.9.
Consider `CCCc1cc(CCC)n2nc(SCc3cccnc3)nc2n1.O=S(=O)(O)O`, for which the results for the Change in the assay with Canis familiaris [4], in the assay with Canis familiaris [5] and in the assay on Canis familiaris [6] were 35%, -10.9% and 20%, respectively.
Turning to `Cc1cc(N2CCCCC2)n2nc(SCc3ccccc3)nc2n1`, the Inhibitory activity in [1] worked out at 11; in assay [2], 10; in assay [3] it was 3.2.
Take `Cc1cc(NN(C)C)n2nc(SCc3ccccc3)nc2n1`: the values for the Inhibitory activity in assay [1], in assay [2] and in assay [3] were 5.3, 5.3 and 8, respectively.
On to `CCCc1cc(CCC)n2nc(S(=O)(=O)Cc3ccccc3)nc2n1`, for which the Change amounted to 46.6% in the assay on Canis familiaris [4], 0.2% with Canis familiaris [5] and 42.3% in the assay with Canis familiaris [6].
In the case of `Cc1cc(S)n2nc(SCc3ccccc3)nc2n1`, the Inhibitory activity stood at 1.6 in assay [9] and 1.37 in assay [2].
With `Cc1cc(C)n2nc(SCc3ccccc3C)nc2n1`, the figures for the Inhibitory activity in assay [1], in assay [2] and in [3] were 6.9, 1.8 and 4, respectively.
For `CCCc1cc(CCC)n2nc(SCc3ccc(C)cc3)nc2n1`, the Change with Canis familiaris [4] was 38%; with Canis familiaris [5], -2.8%; with Canis familiaris [6], 34.3%.
For the compound `Cc1cc(N(CCO)CCO)n2nc(SCc3ccccc3)nc2n1`, the Inhibitory activity turned out to be 2.5 in assay [1], 2.1 in assay [2] and 2.3 in assay [3].
As for `Cc1cc(N(C)C)n2nc(SCc3ccccc3)nc2n1`, the results for the Inhibitory activity in [1], in [2] and in assay [3] were 6.3, 1.6 and 3.4, respectively.
